Laboratory results as given in ChEMBL document CHEMBL1130309, “Syntheses and anticancer activity of ribonucleoside analogues containing thio-substituted five-membered heterocyclic base” (Bioorg Med Chem Lett, 1997).

Legend:
SNB-19 [1] = assay: Compound was evaluated in vitro against NCI CNS cancer cell line SNB19; type: functional, cell-based; conditions: Homo sapiens
SNB-19 [2] = assay: Compound was evaluated in vitro against NCI CNS cancer cell line SNB19; Not active; type: functional, cell-based, Homo sapiens

Structure (SMILES)	IC50 (SNB-19 [1]) [nM]	IC50 (SNB-19 [2])
Nc1nn(C2O[C@H](CO)[C@@H](O)[C@H]2O)c(=S)s1 (some centres not stated)	39.4	
Nc1nn([C@@H]2O[C@H](COCc3ccccc3)[C@@H](OCc3ccccc3)[C@H]2OCc2ccccc2)c(=S)s1		Not Active
